Key:
Human NPT2a = target: T1, Human NPT2a (Homo sapiens, UniProt Q06495); experiment: 33P-phosphate uptake in CHO cells expressing human NPT2a; assay type: cell-based
T1 construct: Full Length cDNA Cloning and Generation of Cell Lines Over-Expressing Human NPT2a, NPT2c, Pit1, and Pit2; host or cells: CHO-K1 / T-REx CHO, pJTI R4 CMV-TO, tetracycline-induced
T1 sequence (Q06495 1-639): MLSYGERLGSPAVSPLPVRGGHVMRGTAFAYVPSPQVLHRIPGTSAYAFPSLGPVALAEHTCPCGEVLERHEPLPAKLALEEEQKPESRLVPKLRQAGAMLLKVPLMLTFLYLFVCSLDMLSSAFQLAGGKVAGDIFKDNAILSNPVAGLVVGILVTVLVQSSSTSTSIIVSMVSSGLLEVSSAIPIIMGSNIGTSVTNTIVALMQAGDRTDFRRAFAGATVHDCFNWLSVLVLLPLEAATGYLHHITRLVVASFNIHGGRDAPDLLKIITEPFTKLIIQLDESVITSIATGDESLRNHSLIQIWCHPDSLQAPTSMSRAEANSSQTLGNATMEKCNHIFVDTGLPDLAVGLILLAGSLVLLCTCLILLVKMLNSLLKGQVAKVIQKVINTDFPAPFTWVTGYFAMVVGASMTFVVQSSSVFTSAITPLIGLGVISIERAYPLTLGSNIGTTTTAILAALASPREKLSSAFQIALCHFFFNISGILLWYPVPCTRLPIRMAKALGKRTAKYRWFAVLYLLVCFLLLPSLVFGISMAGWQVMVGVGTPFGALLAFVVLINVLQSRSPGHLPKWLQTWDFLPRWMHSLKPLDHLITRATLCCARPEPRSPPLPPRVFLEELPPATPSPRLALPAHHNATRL
Procedure: T‐Rex™ Chinese Hamster Ovary cells (CHO; Thermo Fisher Scientific) stably expressing human, mouse, or rat NPT2b under a tetracycline‐inducible promoter were generated using standard cDNA transfection and clone selection procedures (see Supporting Information). Cells were plated in 96‐well CytoStar‐T® scintillating microplates and were incubated overnight in growth media plus 100 ng/ml of tetracycline to induce expression of NPT2b. The next day, cells were washed 3 times with 200 µl assay buffer (137 mM NaCl, 5.4 mM KCl, 2.8 mM CaCl2, 1.2 mM MgSO4, and 14 mM Tris‐HCl buffer, pH 7.5). LY3358966 serially diluted 1‐to‐3 in DMSO was added to cells with assay buffer. An equal volume of H3 ^33PO4 (PerkinElmer) in assay buffer supplemented with 5 µM potassium phosphate was then added to initiate radiolabeled phosphate (^33P‐phosphate) uptake. […] The plate was immediately read on a Wallac MicroBeta Trilux liquid scintillation counter. Percent inhibition at all concentrations tested was calculated, and IC50 values were then determined using a 4‐parameter logistic curve fitting equation.
Similar methods were used to measure the effects of LY3358966 on other transporters of interest, except that constitutive promoters were used to generate CHO cells over‐expressing human PiT1 and PiT2. The ^33P‐phosphate uptake was measured after 45 min at 20°C for the NPT2a, NPT2c, PiT1, and PiT2 assays. […]

rat NPT2b = target: T2, rat NPT2b (Rattus norvegicus, UniProt Q9JJ09); experiment: 33P-phosphate uptake in CHO cells expressing rat NPT2b; assay type: cell-based; conditions: geometric mean; 2.5 µM phosphate, 60 min, room temperature
T2 construct: Full-Length cDNA Cloning and Generation of Cell Lines Over-Expressing Human, Mouse, and Rat NPT2b; host or cells: CHO-K1 / T-REx CHO, pcDNA5/TO, tetracycline-induced
T2 sequence (Q9JJ09 1-695): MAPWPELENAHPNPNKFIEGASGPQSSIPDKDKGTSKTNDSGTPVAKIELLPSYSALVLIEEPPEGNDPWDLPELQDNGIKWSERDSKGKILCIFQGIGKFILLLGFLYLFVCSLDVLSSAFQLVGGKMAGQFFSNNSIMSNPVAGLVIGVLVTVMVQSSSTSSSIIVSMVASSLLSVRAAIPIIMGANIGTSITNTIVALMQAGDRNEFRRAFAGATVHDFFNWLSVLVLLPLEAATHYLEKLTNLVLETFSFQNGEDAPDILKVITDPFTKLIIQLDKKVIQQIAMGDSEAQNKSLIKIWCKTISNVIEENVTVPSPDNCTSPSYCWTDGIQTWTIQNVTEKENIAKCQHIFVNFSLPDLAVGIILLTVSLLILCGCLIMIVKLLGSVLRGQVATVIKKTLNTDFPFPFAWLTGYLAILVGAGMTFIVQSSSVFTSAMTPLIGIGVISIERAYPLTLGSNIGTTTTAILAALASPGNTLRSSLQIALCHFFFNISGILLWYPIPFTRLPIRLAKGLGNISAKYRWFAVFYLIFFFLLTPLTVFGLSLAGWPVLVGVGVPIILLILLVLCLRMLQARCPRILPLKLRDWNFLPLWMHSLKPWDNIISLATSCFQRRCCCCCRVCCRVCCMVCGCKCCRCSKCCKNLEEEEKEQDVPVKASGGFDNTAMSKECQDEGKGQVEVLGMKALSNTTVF
Procedure: T‐Rex™ Chinese Hamster Ovary cells (CHO; Thermo Fisher Scientific) stably expressing human, mouse, or rat NPT2b under a tetracycline‐inducible promoter were generated using standard cDNA transfection and clone selection procedures (see Supporting Information). Cells were plated in 96‐well CytoStar‐T® scintillating microplates and were incubated overnight in growth media plus 100 ng/ml of tetracycline to induce expression of NPT2b. The next day, cells were washed 3 times with 200 µl assay buffer (137 mM NaCl, 5.4 mM KCl, 2.8 mM CaCl2, 1.2 mM MgSO4, and 14 mM Tris‐HCl buffer, pH 7.5). LY3358966 serially diluted 1‐to‐3 in DMSO was added to cells with assay buffer. An equal volume of H3 ^33PO4 (PerkinElmer) in assay buffer supplemented with 5 µM potassium phosphate was then added to initiate radiolabeled phosphate (^33P‐phosphate) uptake. The final phosphate concentration was 2.5 µM and the final DMSO concentration was 1%. Following a 60‐min incubation at room temperature, an equal volume of assay buffer containing 400 µM phloretin was added to stop ^33P‐phosphate uptake. The plate was immediately read on a Wallac MicroBeta Trilux liquid scintillation counter. Percent inhibition at all concentrations tested was calculated, and IC50 values were then determined using a 4‐parameter logistic curve fitting equation.
The vendors for target cDNA are listed in supplemental Table 1. […]

- IC50 (Human NPT2a; geometric mean, 45 min at 20°C): 11 nM
- Selectivity (Human NPT2a; ratio of IC50 of human NPT2a assay to that of human NPT2b assay): 0.3
- IC50 (rat NPT2b): 26.8 nM
SMILES: CC1(C)CN(C(=O)NCCCCO)CCN1Cc1cccc(C(=O)Nc2sc3c(c2C(=O)Nc2cc(F)c(CCc4ccc(C(=O)O)cc4)c(F)c2)CCCC3)c1 [LY3358966, 4‐[2‐[2,6‐difluoro‐4‐[[2‐[[3‐[[4‐(4‐hydroxybutylcarbamoyl)‐2,2‐dimethyl‐piperazin‐1‐yl]methyl]benzoyl]amino]‐4,5,6,7‐tetrahydrobenzothiophene‐3‐carbonyl]amino]phenyl]ethyl]benzoic acid]
